The source of these data is paper PMC7154858, “Transcriptional and Biochemical Characterization of Cytosolic Pyruvate Kinases in Arabidopsis thaliana” (Plants, 2020).

Common to all, as to experiment: LDH-coupled assay, single effector concentration
Type in all cases: biochemical

Assay [1] has as its target T1, cPK3 (Arabidopsis thaliana, UniProt Q9FFP6).
T1 construct: gene MBK5.16; printed locus At5g56350 duplicates cPK2 (apparent misprint); primer begins MSNIDIE, unlike cPK2; full-length cDNA in pET16b, N-terminal His tag (6x/5x), E. coli BLR21, Ni-NTA
T1 sequence (Q9FFP6 1-510): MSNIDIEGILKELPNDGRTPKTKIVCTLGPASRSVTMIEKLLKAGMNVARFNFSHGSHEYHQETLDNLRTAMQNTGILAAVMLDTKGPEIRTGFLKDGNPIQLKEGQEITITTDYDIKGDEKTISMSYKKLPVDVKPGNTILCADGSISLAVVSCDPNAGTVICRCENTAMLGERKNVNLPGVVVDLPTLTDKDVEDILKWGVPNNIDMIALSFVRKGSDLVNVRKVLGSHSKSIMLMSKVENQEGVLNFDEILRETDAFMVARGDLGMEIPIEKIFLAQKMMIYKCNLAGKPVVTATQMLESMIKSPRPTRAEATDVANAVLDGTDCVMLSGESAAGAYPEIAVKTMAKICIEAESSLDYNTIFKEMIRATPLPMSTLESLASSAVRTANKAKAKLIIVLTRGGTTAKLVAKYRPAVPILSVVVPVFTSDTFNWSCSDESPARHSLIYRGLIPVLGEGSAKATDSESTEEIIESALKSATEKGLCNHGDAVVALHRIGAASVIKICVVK
As to conditions: 2000 µM; saturating ADP and PEP; 10 mM MgCl2, pH 7.5, 25 °C; inhibitor (also reaction product).

Assay [2] addresses T2, cPK2 (Arabidopsis thaliana, UniProt Q9FM97).
T2 construct: gene MCD7.8; full-length cDNA in pET16b, N-terminal His tag (6x in Results, 5x in Methods), E. coli BLR21, Ni-NTA; primer begins MAMIEQ
T2 sequence (Q9FM97 1-498): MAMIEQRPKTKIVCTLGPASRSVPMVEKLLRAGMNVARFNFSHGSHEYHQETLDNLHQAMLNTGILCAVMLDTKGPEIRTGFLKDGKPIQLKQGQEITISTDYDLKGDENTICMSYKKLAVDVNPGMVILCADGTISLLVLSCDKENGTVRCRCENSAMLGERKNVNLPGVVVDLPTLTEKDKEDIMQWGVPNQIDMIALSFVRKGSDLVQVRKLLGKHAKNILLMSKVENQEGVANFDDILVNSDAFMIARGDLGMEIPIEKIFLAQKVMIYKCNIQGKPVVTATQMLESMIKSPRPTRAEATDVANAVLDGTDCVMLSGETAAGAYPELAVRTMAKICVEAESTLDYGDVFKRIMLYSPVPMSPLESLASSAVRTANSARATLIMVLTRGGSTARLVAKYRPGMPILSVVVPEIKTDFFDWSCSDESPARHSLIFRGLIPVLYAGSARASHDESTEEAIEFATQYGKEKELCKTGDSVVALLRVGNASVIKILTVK
The settings on record: 2000 µM; saturating ADP and PEP; 10 mM MgCl2, pH 7.5, 25 °C; inhibitor (also reaction product).

Assay [3] has as its target T3, cPK1 (Arabidopsis thaliana, UniProt Q9FNN1).
T3 construct: gene MAH20.13; full-length cDNA in pET16b, N-terminal His tag (6x in Results, 5x in Methods), E. coli BLR21, Ni-NTA; primer begins MSNIDIEG
T3 sequence (Q9FNN1 1-510): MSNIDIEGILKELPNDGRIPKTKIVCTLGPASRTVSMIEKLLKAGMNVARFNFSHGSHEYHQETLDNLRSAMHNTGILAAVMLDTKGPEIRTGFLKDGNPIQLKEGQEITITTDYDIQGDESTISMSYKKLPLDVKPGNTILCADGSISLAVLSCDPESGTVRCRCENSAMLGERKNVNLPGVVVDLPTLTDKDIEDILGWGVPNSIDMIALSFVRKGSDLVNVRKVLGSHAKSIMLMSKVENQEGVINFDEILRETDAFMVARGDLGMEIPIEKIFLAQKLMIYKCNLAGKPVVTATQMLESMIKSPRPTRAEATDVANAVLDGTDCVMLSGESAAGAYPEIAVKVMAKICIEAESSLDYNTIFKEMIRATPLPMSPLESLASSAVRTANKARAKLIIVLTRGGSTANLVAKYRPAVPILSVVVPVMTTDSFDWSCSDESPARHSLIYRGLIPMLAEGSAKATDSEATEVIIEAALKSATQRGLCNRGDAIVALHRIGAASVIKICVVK
The settings on record: 2000 µM; saturating ADP and PEP; 10 mM MgCl2, pH 7.5, 25 °C; inhibitor (also reaction product).

The next assay concerns the target T4, cPK5 (Arabidopsis thaliana, UniProt F4J867).
T4 construct: gene At3g52990; full-length cDNA in pET16b, N-terminal His tag (6x in Results, 5x in Methods), E. coli BLR21, Ni-NTA; primer begins MHSSHL
T4 sequence (F4J867 1-527): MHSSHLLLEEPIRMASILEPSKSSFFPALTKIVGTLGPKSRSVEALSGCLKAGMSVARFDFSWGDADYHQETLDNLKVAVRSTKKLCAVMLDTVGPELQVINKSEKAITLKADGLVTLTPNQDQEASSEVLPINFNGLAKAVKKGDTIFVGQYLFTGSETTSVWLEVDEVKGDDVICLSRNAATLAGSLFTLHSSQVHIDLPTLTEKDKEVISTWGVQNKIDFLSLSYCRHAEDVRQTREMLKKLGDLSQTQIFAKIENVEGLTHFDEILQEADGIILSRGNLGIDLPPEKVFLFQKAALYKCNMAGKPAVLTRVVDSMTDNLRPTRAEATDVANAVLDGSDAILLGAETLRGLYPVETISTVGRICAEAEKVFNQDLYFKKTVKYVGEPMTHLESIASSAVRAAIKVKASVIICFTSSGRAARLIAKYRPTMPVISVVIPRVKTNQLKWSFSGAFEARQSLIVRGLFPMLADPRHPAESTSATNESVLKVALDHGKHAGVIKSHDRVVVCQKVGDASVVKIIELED
The settings on record: 4000 µM; saturating ADP and PEP; 10 mM MgCl2, pH 7.5, 25 °C; allosteric inhibitor (stated).

Assay [4] concerns the target T3, cPK1. As to conditions: 4000 µM; saturating ADP and PEP; 10 mM MgCl2, pH 7.5, 25 °C; allosteric inhibitor (stated).
Assay [5] has as its target T2, cPK2. As to conditions: 4000 µM; saturating ADP and PEP; 10 mM MgCl2, pH 7.5, 25 °C; allosteric inhibitor (stated).
Assay [6] deals with T1, cPK3. As to conditions: 4000 µM; saturating ADP and PEP; 10 mM MgCl2, pH 7.5, 25 °C; allosteric inhibitor (stated).
In the next assay the target is T5, cPK4 (Arabidopsis thaliana, UniProt Q9SJQ0).
T5 construct: gene At2g36580; full-length cDNA in pET16b, N-terminal His tag (6x in Results, 5x in Methods), E. coli BLR21, Ni-NTA; primer begins MHSSHL
T5 sequence (Q9SJQ0 1-527): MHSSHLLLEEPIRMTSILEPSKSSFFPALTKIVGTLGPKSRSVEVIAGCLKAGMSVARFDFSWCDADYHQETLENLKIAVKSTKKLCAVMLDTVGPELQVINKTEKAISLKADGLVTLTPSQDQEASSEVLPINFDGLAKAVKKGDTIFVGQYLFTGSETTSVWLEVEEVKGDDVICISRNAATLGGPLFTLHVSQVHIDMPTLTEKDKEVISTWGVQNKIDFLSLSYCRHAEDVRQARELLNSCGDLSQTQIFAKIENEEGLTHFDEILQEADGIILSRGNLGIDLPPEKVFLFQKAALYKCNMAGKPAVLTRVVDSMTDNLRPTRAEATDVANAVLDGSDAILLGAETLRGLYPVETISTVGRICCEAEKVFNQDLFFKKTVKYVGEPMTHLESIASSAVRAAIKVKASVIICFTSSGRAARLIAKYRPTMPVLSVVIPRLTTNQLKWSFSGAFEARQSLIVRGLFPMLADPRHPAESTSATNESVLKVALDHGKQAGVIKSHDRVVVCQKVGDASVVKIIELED
As to conditions: 4000 µM; saturating ADP and PEP; 10 mM MgCl2, pH 7.5, 25 °C; allosteric inhibitor (stated).

The target in assay [7] is T3, cPK1. As to conditions: 1000 µM; saturating ADP and PEP; 10 mM MgCl2, pH 7.5, 25 °C; activator.

For `Nc1ncnc2c1ncn2[C@@H]1O[C@H](COP(=O)(O)OP(=O)(O)OP(=O)(O)O)[C@@H](O)[C@H]1O` [ATP], the ATP on cPK3 [1] was 27%; at cPK2 [2], 76%; at cPK1 [3], 7%.
For the molecule `O=C(O)CC(O)(CC(=O)O)C(=O)O` [citrate], the Citrate on cPK5 came to 2%; on cPK1 [4], 17%; on cPK2 [5], 26%; on cPK3 [6] it was 7%; at cPK4, 3%.
Consider `O=P(O)(O)OC[C@H]1OC(O)(COP(=O)(O)O)[C@@H](O)[C@@H]1O` (stereo partly drawn) [F1.6BP], for which the F1.6BP at cPK1 [7] turned out to be 122%.
